Data set [1] concerns healthy tissue homogenates. The data set is described as follows: Peptide ex vivo binding assay, non-specific binding. As to conditions: data not shown.
In data set [2] the test system is human AL amyloid extracts. Put plainly: Peptide ex vivo amyloid binding assay (pull-down), AL extracts. As to conditions: for % Bound (mean ± SD): 1 h incubation, PBST, RT, N = 2. How it is done: Human amyloid tissue extracts were prepared using the water flotation method as described by Pras et al. without modification. Purified amyloid material isolated in the water wash was collected and lyophilized before use.
Twenty-five microliters of 1 mg/mL AL extract, or synthetic rVλ6Wil variable domain fibrils were centrifuged in a 0.5 mL microfuge tube at 21,000× g for 5 min. The supernatant was discarded and pellet resuspended in 200 µL of PBS with 0.05% Tween-20 (PBST). Ten microliters of a 1:100 dilution of ^125I-p5+14 (~100,000 counts per minute (CPM); ~5 ng peptide) stock was added to the suspension. The mixture was rotated at RT for 1 h. Samples were then centrifuged twice at 15,000× g for 10 min. Supernatants and pellets were separated after each step and the radioactivity in each was measured using a Cobra II gamma counter (Perkin Elmer) with a 1 min acquisition. The percentage of ^125I-p5+14 bound to pellet was determined as follows: % Bound = Pellet CPM/(Pellet CPM + Supernatant CPM) × 100

A short description of data set [3]: Biodistribution, SPECT/CT and micro-autoradiography of 125I-p5+14 in healthy wild type mice. It counts as in vivo, mouse (WT). How it is done: (§1) For serial SPECT/CT imaging in cohorts (n = 3) of AA and healthy wild type (WT) mice, peptide p5+14 (100 µg) was radioiodinated with ~4 mCi of ^125I (Perkin Elmer, Waltham, MA, USA), using 20 µg chloramine T as the oxidizing agent. After quenching the reaction with 20 µg sodium metabisulfite, the radiolabeled peptide was diluted into 0.1% sterile gelatin in PBS and free radioiodide removed by size exclusion chromatography on a 5 mL PD10 (GE Healthcare) solid phase equilibrated with 0.1% gelatin/PBS. Fractions 0f 200 µL were collected and those containing the maximal radioactivity (indicative of ^125I-p5+14) were pooled, and the product’s radiochemical purity was established by SDS polyacrylamide gel electrophoresis (PAGE) analyzed by phosphor imaging (Cyclone Storage Phosphor System, Perkin Elmer, Shelton, CT, USA).
Imaging was performed as described. Briefly, WT or AA amyloid mice (n = 3) were injected with ~3 µg of ^125I-p5+14, 125 µCi (specific activity ~40 µCi/µg) in the lateral tail vein. After the appropriate uptake time (1, 4, 24, and 48 h), mice were euthanized by isoflurane inhalation overdose. SPECT images were acquired using an Inveon trimodality imaging platform (Siemens Preclinical Solution, Knoxville, TN, USA; [64]) running Inveon Acquisition Workplace software (ver. 2.0). Low energy (^125I; 25–45 keV) gamma photons were acquired at each of 60, 16-sec projections with 90 mm of bed travel. A 1 mm-diameter, 5-pinhole (Mouse Whole Body) collimator was used at 30 mm from the center of the field of view. […]
(§2) Samples of liver, spleen, pancreas, kidneys, small and large intestines, stomach and heart were harvested post mortem from every mouse undergoing imaging with ^125I-p5+14 [45]. A sample of each was placed into a tared, plastic vial, weighed and the ^125I radioactivity measured using an automated Wizard 3 gamma counter (1480 Wallac Gamma Counter, Perkin Elmer). The biodistribution data were expressed as % injected dose/g tissue (%ID/g). […]

Data set [4] relates to human AL and ATTR amyloid in tissue sections. Put plainly: Peptide histochemistry and overlay micro-autoradiography on human tissue sections. As to conditions: ~5 ng/mL, 1 h room temperature; FFPE human AL and ATTR sections. It counts as binding. How it is done:
For autoradiography, 6- μm-thick sections were cut from formalin-fixed, paraffin-embedded blocks, containing tissues from mice that had received ^125I-p5+14. Mice were euthanized at 1 h pi of radiotracer. The sections were placed on Plus microscope slides (ThermoFisher Scientific, Waltham, MA, USA), dipped in NTB-2 emulsion (Eastman Kodak, Rochester, NY, USA), stored in the dark and developed after a 4 day exposure. Each section was counterstained with hematoxylin and eosin. […] Blinded qualitative assessment of amyloid load in Congo red-stained sections of liver and spleen was performed by an experienced amyloid researcher who ranked each tissue on a 0 to 4+ scale. All tissue sections were examined using a Leica DM500 light microscope (Leica, Wetzlar, Germany) fitted with cross-polarizing filters (for Congo red). Digital microscopic images were acquired using a cooled CCD camera (SPOT; Diagnostic Instruments, Sterling Heights, MI, USA).
Peptide p5+14 (with a cysteine residue at the N-terminal) was prepared for tissue staining by either biotinylation, according to the manufacturer’s instructions, using a maleimide-biotin conjugation kit (Pierce, Grand Island, NY, USA), or for overlay-micoautoradiography by radioiodination with ^125I, as described above. […]

A further data set deals with T1, AA amyloid (Mus musculus, UniProt P05367).
T1 construct: organs known to develop AA amyloid in this mouse model; from tissue; host or cells: live H2/IL-6 transgenic Balb/c mice; liver, spleen, heart, kidney, pancreas
T1 sequence (P05367 20-95 limits assumed): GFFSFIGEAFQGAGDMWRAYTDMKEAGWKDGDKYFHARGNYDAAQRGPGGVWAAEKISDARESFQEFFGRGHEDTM
The data set is described as follows: Biodistribution, SPECT/CT and micro-autoradiography of 125I-p5+14 in mice with systemic AA amyloidosis. The data set is classed as in vivo, mouse (H2/IL-6 transgenic). How it is done: Systemic visceral AA amyloidosis was induced in H2-Ld-huIL-6 Tg Balb/c transgenic mice that constitutively express the human interleukin-6 transgene by iv injection of 10 µg of purified, splenic AA amyloid (amyloid enhancing factor; AEF) in 100 µL of sterile phosphate-buffered saline (PBS). Peptide was evaluated in mice at 4–6 wk post AEF injection when amyloid load was significant.
as §1
Imaging was performed as described. Briefly, WT or AA amyloid mice (n = 3) were injected with ~3 µg of ^125I-p5+14, 125 µCi (specific activity ~40 µCi/µg) in the lateral tail vein. After the appropriate uptake time (1, 4, 24, and 48 h), mice were euthanized by isoflurane inhalation overdose. […]
as §2

Where no end group is shown, it is not given here. [ ]: non-standard residue; d: D form. Tyr(3-I) = N[C@@H](Cc1ccc(O)c(I)c1)C(=O)O

Turning to “GGG[Tyr(3-I)]SKAQKAQAKQAKQAQKAQKAQAKQAKQAQKAQKAQAKQAKQ [125I-p5+14]”, the non-specific binding in data set [1] is recorded as ~ 10%. Besides, in data set [2] (across the human AL and ATTR amyloid extracts of Table 3), the “median % bound amongst the test samples” value was determined as 92%. The “% Bound (mean ± SD)” value in data set [2] (κ1 AL08 liver extract) is 96.35 ± 0.47%; in data set [2] (κ4 AL01 spleen extract) it was 97.00 ± 0.11%; in data set [2] (λ1 AL03 liver extract), 91.16 ± 0.87%; in data set [2] (λ1 AL07 liver extract) it was 51.81 ± 0.25%; in data set [2] (λ2 AL02 liver extract), 92.95 ± 0.31%; in data set [2] (λ2 AL02 spleen extract), 96.76 ± 3.65%. Moreover, the “% Bound (mean ± SD)” value in data set [2] (λ2 AL06 liver extract) is reported as 89.66 ± 0.91%; in data set [2] (λ2 AL06 spleen extract), 97.11 ± 0.05%; in data set [2] (λ2 AL09 liver extract), 84.99 ± 0.14%; in data set [2] (λ3 AL04 liver extract), 88.44 ± 0.25%; in data set [2] (λ3 AL04 spleen extract) it was 92.29 ± 0.30%; in data set [2] (λ4 AL05 spleen extract), 95.44 ± 0.03%. The “micro-autoradiographic distribution of radiolabeled peptide in tissues” value in data set [3] (WT mice, 1 h pi, 6 µm tissue sections) is recorded as “not retained by any cells or macroscopic structures in healthy tissues”; on AA amyloid (AA mice, 1 h pi, 6 µm tissue sections compared with Congo red), “co-localized with amyloid in diseased tissues”. In addition, the whole-body retention half-life in data set [3] (WT mice, iv ~3 µg 125I-p5+14, gamma counting up to 48 h pi, exponential fit, n = 3 per time point) is on record as ~ 1.5 h; on AA amyloid (mice with AA amyloidosis, iv ~3 µg 125I-p5+14, gamma counting up to 48 h pi, n = 3 per time point) it was above 48 h. In addition, in data set [3] (mouse, in vivo, iv, 3 ug, healthy mice, 2 h pi, read-out: retention of radioactivity in any organ), the tissue uptake at 2 h was below 0.6 %ID/g. For the same substance, in data set [4], the “overlay micro-autoradiography on human tissue sections” value is “co-localized with both AL and ATTR amyloid”. For the same substance, the “125I-p5+14 retention in the spleen” value on AA amyloid (mice deemed amyloid-free by Congo red histochemical staining (cohort n = 34)) is given as above 3 %ID/g.

The record behind these values is article PMC4442108, “Preclinical Validation of the Heparin-Reactive Peptide p5+14 as a Molecular Imaging Agent for Visceral Amyloidosis” (Molecules, 2015).
